# Experiments:
# [1] = hygroscopicity of the crystalline form; assay type: physicochemical
# [2] = stability of the crystal form at ambient temperatures; assay type: physicochemical
smiles,measurement,setting,value
"Cc1cc(SCc2sc(-c3ccc(C(F)(F)F)cc3)nc2C)ccc1OCC(=O)O [Form 7, {2-methyl-4-[4-methyl-2-(4-trifluoromethylphenyl)thiazol-5-ylmethylthio]phenoxy}-acetic acid]",hygroscopic nature of crystalline form,[1],non-hygroscopic
same,stability of crystal form,[2],stable

# From US20090012133A1, “Polymorphic Form of -Acetic Acid” (SMITHKLINE BEECHAM CORPORATION, priority 2006, published 2009)
